{
  "source": "ChEMBL document CHEMBL1201861",
  "about": "“Genomics of Drug Sensitity in Cancer screening data, Wellcome Trust Sanger Institute”",
  "test_in_all_cases": "cells",
  "key": {"KARPAS-299": {"test_system": "KARPAS-299", "format": "functional, cell-based, Homo sapiens", "conditions": "Homo sapiens, KARPAS-299", "description": "SANGER: Inhibition of human KARPAS-299 cell growth in a cell viability assay."}, "K5": {"test_system": "K5", "format": "functional, cell-based, Homo sapiens", "conditions": "Homo sapiens, K5", "description": "SANGER: Inhibition of human K5 cell growth in a cell viability assay."}, "TGBC24TKB": {"test_system": "TGBC24TKB", "format": "functional, cell-based, Homo sapiens", "conditions": "Homo sapiens, TGBC24TKB", "description": "SANGER: Inhibition of human TGBC24TKB cell growth in a cell viability assay."}, "KE-37": {"test_system": "KE-37", "format": "functional, cell-based, Homo sapiens", "conditions": "Homo sapiens, KE-37", "description": "SANGER: Inhibition of human KE-37 cell growth in a cell viability assay."}, "Lu-65": {"test_system": "Lu-65", "format": "functional, cell-based, Homo sapiens", "conditions": "Homo sapiens, Lu-65", "description": "SANGER: Inhibition of human LU-65 cell growth in a cell viability assay."}, "SCH": {"test_system": "SCH", "format": "functional, cell-based, Homo sapiens", "conditions": "Homo sapiens, SCH", "description": "SANGER: Inhibition of human SCH cell growth in a cell viability assay."}, "RS4-11": {"test_system": "RS4-11", "format": "functional, cell-based, Homo sapiens", "conditions": "Homo sapiens, RS4-11", "description": "SANGER: Inhibition of human RS4-11 cell growth in a cell viability assay."}, "NCI-H1650": {"test_system": "NCI-H1650", "format": "functional, cell-based, Homo sapiens", "conditions": "Homo sapiens, NCI-H1650", "description": "SANGER: Inhibition of human NCI-H1650 cell growth in a cell viability assay."}, "D-502MG": {"test_system": "D-502MG", "format": "functional, cell-based, Homo sapiens", "conditions": "Homo sapiens, D-502MG", "description": "SANGER: Inhibition of human D-502MG cell growth in a cell viability assay."}, "Ramos-2G6-4C10": {"test_system": "Ramos-2G6-4C10", "format": "functional, cell-based, Homo sapiens", "conditions": "Homo sapiens, Ramos-2G6-4C10", "description": "SANGER: Inhibition of human Ramos-2G6-4C10 cell growth in a cell viability assay."}, "NCI-H1648": {"test_system": "NCI-H1648", "format": "functional, cell-based, Homo sapiens", "conditions": "Homo sapiens, NCI-H1648", "description": "SANGER: Inhibition of human NCI-H1648 cell growth in a cell viability assay."}, "SJSA-1": {"test_system": "SJSA-1", "format": "functional, cell-based, Homo sapiens", "conditions": "Homo sapiens, SJSA-1", "description": "SANGER: Inhibition of human SJSA-1 cell growth in a cell viability assay."}, "SNU-5": {"test_system": "SNU-5", "format": "functional, cell-based, Homo sapiens", "conditions": "Homo sapiens, SNU-5", "description": "SANGER: Inhibition of human NCI-SNU-5 cell growth in a cell viability assay."}, "LB771-HNC": {"test_system": "LB771-HNC", "format": "functional, cell-based, Homo sapiens", "conditions": "Homo sapiens, LB771-HNC", "description": "SANGER: Inhibition of human LB771-HNC cell growth in a cell viability assay."}, "MHH-NB-11": {"test_system": "MHH-NB-11", "format": "functional, cell-based, Homo sapiens", "conditions": "Homo sapiens, MHH-NB-11", "description": "SANGER: Inhibition of human MHH-NB-11 cell growth in a cell viability assay."}, "LU-139": {"test_system": "LU-139", "format": "functional, cell-based, Homo sapiens", "conditions": "Homo sapiens, LU-139", "description": "SANGER: Inhibition of human LU-139 cell growth in a cell viability assay."}, "GI-1": {"test_system": "GI-1", "format": "functional, cell-based, Homo sapiens", "conditions": "Homo sapiens, GI-1", "description": "SANGER: Inhibition of human GI-1 cell growth in a cell viability assay."}, "LS-1034": {"test_system": "LS-1034", "format": "functional, cell-based, Homo sapiens", "conditions": "Homo sapiens, LS-1034", "description": "SANGER: Inhibition of human LS-1034 cell growth in a cell viability assay."}, "KNS-42": {"test_system": "KNS-42", "format": "functional, cell-based, Homo sapiens", "conditions": "Homo sapiens, KNS-42", "description": "SANGER: Inhibition of human KNS-42 cell growth in a cell viability assay."}, "NCI-H82": {"test_system": "NCI-H82", "format": "functional, cell-based, Homo sapiens", "conditions": "Homo sapiens, NCI-H82", "description": "SANGER: Inhibition of human NCI-H82 cell growth in a cell viability assay."}, "NEC8": {"test_system": "NEC8", "format": "functional, cell-based, Homo sapiens", "conditions": "Homo sapiens, NEC8", "description": "SANGER: Inhibition of human NEC8 cell growth in a cell viability assay."}, "TE-11": {"test_system": "TE-11", "format": "functional, cell-based, Homo sapiens", "conditions": "Homo sapiens, TE-11", "description": "SANGER: Inhibition of human TE-11 cell growth in a cell viability assay."}, "OVCAR-4": {"test_system": "OVCAR-4", "format": "functional, cell-based, Homo sapiens", "conditions": "Homo sapiens, OVCAR-4", "description": "SANGER: Inhibition of human OVCAR-4 cell growth in a cell viability assay."}, "TGW": {"test_system": "TGW", "format": "functional, cell-based, Homo sapiens", "conditions": "Homo sapiens, TGW", "description": "SANGER: Inhibition of human TGW cell growth in a cell viability assay."}, "DJM-1": {"test_system": "DJM-1", "format": "functional, cell-based, Homo sapiens", "conditions": "Homo sapiens, DJM-1", "description": "SANGER: Inhibition of human DJM-1 cell growth in a cell viability assay."}, "DMS-114": {"test_system": "DMS-114", "format": "functional, cell-based, Homo sapiens", "conditions": "Homo sapiens, DMS-114"}, "NCI-H226": {"test_system": "NCI-H226", "format": "functional, cell-based, Homo sapiens", "conditions": "Homo sapiens, NCI-H226", "description": "SANGER: Inhibition of human NCI-H226 cell growth in a cell viability assay."}, "ATN-1": {"test_system": "ATN-1", "format": "functional, cell-based, Homo sapiens", "conditions": "Homo sapiens, ATN-1", "description": "SANGER: Inhibition of human ATN-1 cell growth in a cell viability assay."}, "BB30-HNC": {"test_system": "BB30-HNC", "format": "functional, cell-based, Homo sapiens", "conditions": "Homo sapiens, BB30-HNC", "description": "SANGER: Inhibition of human BB30-HNC cell growth in a cell viability assay."}, "LB2518-MEL": {"test_system": "LB2518-MEL", "format": "functional, cell-based, Homo sapiens", "conditions": "Homo sapiens, LB2518-MEL", "description": "SANGER: Inhibition of human LB2518-MEL cell growth in a cell viability assay."}, "COR-L88": {"test_system": "COR-L88", "format": "functional, cell-based, Homo sapiens", "conditions": "Homo sapiens, COR-L88", "description": "SANGER: Inhibition of human COR-L88 cell growth in a cell viability assay."}, "OMC-1": {"test_system": "OMC-1", "format": "functional, cell-based, Homo sapiens", "conditions": "Homo sapiens, OMC-1", "description": "SANGER: Inhibition of human OMC-1 cell growth in a cell viability assay."}, "EW-18": {"test_system": "EW-18", "format": "functional, cell-based, Homo sapiens", "conditions": "Homo sapiens, EW-18", "description": "SANGER: Inhibition of human EW-18 cell growth in a cell viability assay."}, "MOLT-16": {"test_system": "MOLT-16", "format": "functional, cell-based, Homo sapiens", "conditions": "Homo sapiens, MOLT-16", "description": "SANGER: Inhibition of human MOLT-16 cell growth in a cell viability assay."}, "NB10": {"test_system": "NB10", "format": "functional, cell-based, Homo sapiens", "conditions": "Homo sapiens, NB10", "description": "SANGER: Inhibition of human NB10 cell growth in a cell viability assay."}, "COLO-824": {"test_system": "COLO-824", "format": "functional, cell-based, Homo sapiens", "conditions": "Homo sapiens, COLO-824", "description": "SANGER: Inhibition of human COLO-824 cell growth in a cell viability assay."}, "KM-H2": {"test_system": "KM-H2", "format": "functional, cell-based, Homo sapiens", "conditions": "Homo sapiens, KM-H2", "description": "SANGER: Inhibition of human KM-H2 cell growth in a cell viability assay."}, "LOX IMVI": {"test_system": "LOX IMVI", "format": "functional, cell-based, Homo sapiens", "conditions": "Homo sapiens, LOX IMVI", "description": "SANGER: Inhibition of human LOXIMVI cell growth in a cell viability assay."}, "HuTu80": {"test_system": "HuTu80", "format": "functional, cell-based, Homo sapiens, HUTU-80", "conditions": "Homo sapiens, HuTu80", "description": "SANGER: Inhibition of human HUTU-80 cell growth in a cell viability assay."}, "AM-38": {"test_system": "AM-38", "format": "functional, cell-based, Homo sapiens", "conditions": "Homo sapiens, AM-38", "description": "SANGER: Inhibition of human AM-38 cell growth in a cell viability assay."}, "MSTO-211H": {"test_system": "MSTO-211H", "format": "functional, cell-based, Homo sapiens", "conditions": "Homo sapiens, MSTO-211H", "description": "SANGER: Inhibition of human MSTO-211H cell growth in a cell viability assay."}, "HCC1187": {"test_system": "HCC1187", "format": "functional, cell-based, Homo sapiens", "conditions": "Homo sapiens, HCC1187", "description": "SANGER: Inhibition of human HCC1187 cell growth in a cell viability assay."}, "ES5": {"test_system": "ES5", "format": "functional, cell-based, Homo sapiens", "conditions": "Homo sapiens, ES5", "description": "SANGER: Inhibition of human ES5 cell growth in a cell viability assay."}, "HH": {"test_system": "HH", "format": "functional, cell-based, Homo sapiens", "conditions": "Homo sapiens, HH", "description": "SANGER: Inhibition of human HH cell growth in a cell viability assay."}, "LB831-BLC": {"test_system": "LB831-BLC", "format": "functional, cell-based, Homo sapiens", "conditions": "Homo sapiens, LB831-BLC", "description": "SANGER: Inhibition of human LB831-BLC cell growth in a cell viability assay."}, "ALL-PO": {"test_system": "ALL-PO", "format": "functional, cell-based, Homo sapiens", "conditions": "Homo sapiens, ALL-PO", "description": "SANGER: Inhibition of human ALL-PO cell growth in a cell viability assay."}, "SNB-75": {"test_system": "SNB-75", "format": "functional, cell-based, Homo sapiens", "conditions": "Homo sapiens, SNB-75", "description": "SANGER: Inhibition of human SNB75 cell growth in a cell viability assay."}, "KALS-1": {"test_system": "KALS-1", "format": "functional, cell-based, Homo sapiens", "conditions": "Homo sapiens, KALS-1", "description": "SANGER: Inhibition of human KALS-1 cell growth in a cell viability assay."}, "HC-1": {"test_system": "HC-1", "format": "functional, cell-based, Homo sapiens", "conditions": "Homo sapiens, HC-1", "description": "SANGER: Inhibition of human HC-1 cell growth in a cell viability assay."}},
  "data": [
    {"smiles": "CC(=O)O[C@H]1C(=O)[C@@]2(C)[C@H]([C@H](OC(=O)c3ccccc3)[C@]3(O)C[C@H](OC(=O)[C@H](O)[C@@H](NC(=O)c4ccccc4)c4ccccc4)C(C)=C1C3(C)C)[C@]1(OC(C)=O)CO[C@@H]1C[C@@H]2O", "note": "[PACLITAXEL]", "values": [
      {"measurement": "IC50", "setting": "KARPAS-299", "value": 39.8, "unit": "nM"},
      {"measurement": "IC50", "setting": "K5", "value": 72.3, "unit": "nM"},
      {"measurement": "IC50", "setting": "TGBC24TKB", "value": 7.52, "unit": "nM"},
      {"measurement": "IC50", "setting": "KE-37", "value": 12.3, "unit": "nM"},
      {"measurement": "IC50", "setting": "Lu-65", "value": "> 102", "unit": "nM"},
      {"measurement": "IC50", "setting": "SCH", "value": "> 102", "unit": "nM"},
      {"measurement": "IC50", "setting": "RS4-11", "value": 8.36, "unit": "nM"},
      {"measurement": "IC50", "setting": "NCI-H1650", "value": "> 102", "unit": "nM"},
      {"measurement": "IC50", "setting": "D-502MG", "value": "> 102", "unit": "nM"},
      {"measurement": "IC50", "setting": "Ramos-2G6-4C10", "value": "> 102", "unit": "nM"},
      {"measurement": "IC50", "setting": "NCI-H1648", "value": 4.69, "unit": "nM"},
      {"measurement": "IC50", "setting": "SJSA-1", "value": 17.7, "unit": "nM"},
      {"measurement": "IC50", "setting": "SNU-5", "value": 17, "unit": "nM"},
      {"measurement": "IC50", "setting": "LB771-HNC", "value": 25.3, "unit": "nM"},
      {"measurement": "IC50", "setting": "MHH-NB-11", "value": "> 102", "unit": "nM"},
      {"measurement": "IC50", "setting": "LU-139", "value": 59.9, "unit": "nM"},
      {"measurement": "IC50", "setting": "GI-1", "value": 13.7, "unit": "nM"},
      {"measurement": "IC50", "setting": "LS-1034", "value": 80.4, "unit": "nM"},
      {"measurement": "IC50", "setting": "KNS-42", "value": 8.91, "unit": "nM"},
      {"measurement": "IC50", "setting": "NCI-H82", "value": 43.1, "unit": "nM"},
      {"measurement": "IC50", "setting": "NEC8", "value": 52.9, "unit": "nM"},
      {"measurement": "IC50", "setting": "TE-11", "value": 1.23, "unit": "nM"},
      {"measurement": "IC50", "setting": "OVCAR-4", "value": 9.04, "unit": "nM"},
      {"measurement": "IC50", "setting": "TGW", "value": 86.1, "unit": "nM"},
      {"measurement": "IC50", "setting": "DJM-1", "value": 5.3, "unit": "nM"},
      {"measurement": "IC50", "setting": "DMS-114", "value": 25, "unit": "nM"},
      {"measurement": "IC50", "setting": "NCI-H226", "value": "> 102", "unit": "nM"},
      {"measurement": "IC50", "setting": "ATN-1", "value": 6.09, "unit": "nM"},
      {"measurement": "IC50", "setting": "BB30-HNC", "value": 3.14, "unit": "nM"},
      {"measurement": "IC50", "setting": "LB2518-MEL", "value": 81.4, "unit": "nM"},
      {"measurement": "IC50", "setting": "COR-L88", "value": 59.3, "unit": "nM"},
      {"measurement": "IC50", "setting": "OMC-1", "value": "> 102", "unit": "nM"},
      {"measurement": "IC50", "setting": "EW-18", "value": "> 102", "unit": "nM"},
      {"measurement": "IC50", "setting": "MOLT-16", "value": 21.5, "unit": "nM"},
      {"measurement": "IC50", "setting": "NB10", "value": "> 102", "unit": "nM"},
      {"measurement": "IC50", "setting": "COLO-824", "value": "> 102", "unit": "nM"},
      {"measurement": "IC50", "setting": "KM-H2", "value": 33.1, "unit": "nM"},
      {"measurement": "IC50", "setting": "LOX IMVI", "value": 70.3, "unit": "nM"},
      {"measurement": "IC50", "setting": "HuTu80", "value": 1.68, "unit": "nM"},
      {"measurement": "IC50", "setting": "AM-38", "value": "> 102", "unit": "nM"},
      {"measurement": "IC50", "setting": "MSTO-211H", "value": "> 102", "unit": "nM"},
      {"measurement": "IC50", "setting": "HCC1187", "value": 19.2, "unit": "nM"},
      {"measurement": "IC50", "setting": "ES5", "value": "> 102", "unit": "nM"},
      {"measurement": "IC50", "setting": "HH", "value": 71.6, "unit": "nM"},
      {"measurement": "IC50", "setting": "LB831-BLC", "value": 24.8, "unit": "nM"},
      {"measurement": "IC50", "setting": "ALL-PO", "value": 6.3, "unit": "nM"},
      {"measurement": "IC50", "setting": "SNB-75", "value": 15.4, "unit": "nM"},
      {"measurement": "IC50", "setting": "KALS-1", "value": 3.08, "unit": "nM"},
      {"measurement": "IC50", "setting": "HC-1", "value": 7.21, "unit": "nM"}
    ]}
  ]
}
